Results taken from publication PMC12030062, “From In Vitro Cytotoxicity to In Vivo Zebrafish Assays: A Study on 3,3-Dichloro β-, γ- and δ-Lactams and Their Biological Activity Profiles” (Pharmaceuticals, 2025).

Columns and labels:
[1] = Hemolysis assay with human erythrocytes; type: cell-based; conditions: human, washed human erythrocyte suspension, pH 7.4; 10 µg/mL; read-out: degree of hemolysis
Description: (§1) In this context, non-hemolytic compounds are essential, as they enhance the safety and efficacy of lactam-based drugs by reducing adverse effects while maintaining their antitumor activity. In accordance with EU regulations (ISO 10993-4), the assessment of the biological compatibility of new compounds that may come into contact with the blood necessitates in vitro hemocompatibility evaluations. In this study, the extent of hemolysis induced by the different compounds was assessed by incubating them with an erythrocyte suspension. The hemolytic response of compounds 1–10 was evaluated at two concentrations (10 and 80 µg/mL), the results of which are presented in Figure 3.
(§2) • In Vitro Assay Using Human Erythrocytes • - Acquisition and Extraction of the Erythrocytes Human blood samples were obtained from the Banc de Sang i Teixits de Barcelona (Spain) from the Catalan Department of Health. Blood was deposited in tubes with the anticoagulant EDTA-K3. Blood samples were centrifuged at 3000 rpm and 4 °C for 10 min (Megafuge 2.0 R. Heraeus Instruments, Hanau, Germany) to induce sedimentation. Plasma was extracted with a Pasteur pipette. Next, the residual pellet was washed with PBS at pH 7.4. This procedure was repeated three times to remove residual leukocytes and platelets and to concentrate the erythrocytes. Following the last wash, the erythrocyte suspension was diluted (1:1) in PBS at pH 7.4 to obtain a suitable erythrocyte suspension (cell density of 8 × 10^9 cell/mL). • - Hemolysis Assay The hemolysis assay determined the capability of different compounds to induce the hemolysis of the erythrocyte membrane. Stock solutions of each compound at 1 mg/mL in PBS at pH 7.4 were prepared. Different volumes (10–80 μL) were placed in polystyrene tubes, and an aliquot of 25 µL of the erythrocyte suspensions was added to each tube. The final volume was 1 mL. The tubes were incubated at room temperature under rotatory conditions. Then, the tubes were centrifuged at 10,000 rpm for 5 min. The supernatants’ absorbance at 540 nm (Shimadzu UV-160A, Shimadzu, Duisburg, Germany) was compared with that of the positive (erythrocytes hemolyzed with distilled water) and negative (erythrocyte suspension in PBS at pH 7.4) controls. The degree of hemolysis was determined using the following equation: Hemolysis (%) = 100 × (Abs − Abs0)/(Abs100 − Abs0) where Abs, Abs0, and Abs100 are the absorbance of the test samples, of the suspension treated with isotonic phosphate–buffered saline (PBS), and of the suspension of complete hemolysis treated with distilled water, respectively. • In Vitro Essay Using Cell Cultures The murine Swiss albino fibroblasts (3T3) and the squamous cell carcinoma (A431) cell lines were obtained from Celltec UB. Cells were grown in DMEM medium (4.5 g/L glucose) supplemented with 10% (v/v) FBS, 2 mM L-glutamine, 100 U/mL penicillin, and 100 µg/mL streptomycin at 37 °C with 5% CO2. Cells were routinely cultured in 75 cm^2 culture flasks and were trypsinized using trypsin–EDTA when the cells reached approximately 80% confluence. The trypan blue assay, which allows for the direct identification and enumeration of the live (unstained) and dead (blue) cells in the cell population, was used to evaluate the viability of the cells in the cell suspension obtained. • - Cell Viability Assays Cell lines of 3T3 (1 × 10^5 cells/mL) and A431 (5 × 10^4 cells/mL) were grown at defined densities in the 60 central wells of a 96-well plate. The cells were incubated for 24 h in 5% CO2 at 37 °C. Then, the spent medium was removed, and the cells were incubated for 24 h, with their corresponding compound solutions (1 mg/mL) previously diluted in a minimum amount of DMF (dimethylformamide) and then in DMEM medium supplemented with 5% FBS (100 µL) at the required concentration range (80 or 250 µg/mL). […]

human erythrocytes = assay: Hemolysis assay with human erythrocytes; type: cell-based; conditions: from 10 to 80 µg/mL
Description: as §1, §2

Zebrafish embryos = type: in vivo; conditions: 74 hpf after 2-h washout; all tested concentrations up to 3.4 µg/mL
Description: Additionally, at 74 hpf, following a 2-h washout period, the response to a tactile stimulus or touch-evoked response, also known as a TER, was evaluated in embryos. This assay requires the embryos to have proper neuromuscular function. […] Further studies might be needed to elucidate the specific mechanisms by which the compound affects neurodevelopment or motor function and to determine whether these effects translate to other organisms. These findings are consistent with the broader body of research on anticancer agents, highlighting the importance of neurotoxicity evaluation in drug development and reinforcing the need for ongoing research to address these concerns. The videos and figures related to this part of the work are available in the Supplementary Materials.
• Zebrafish egg production and exposure The study was conducted in accordance with the local legislation and institutional requirements, according to the Generalitat de Catalunya Decree 53/2013, which regulates the use of animals for experimental and other scientific purposes. […] At the end of the test, dysmorphogenesis was evaluated in the live embryos only. The average lethality and dysmorphogenesis were calculated for 10 embryos per concentration, followed by averaging the results of at least three independent experiments. […]

In the case of CC(C)(C)N1C(=O)C(Cl)(Cl)C1c1ccccc1 (stereo not drawn) [Compound 1], the hemolysis at 10 µg/mL [1] is reported as 0.01%, the “change of hemolytic response as concentration increased” value (human erythrocytes) is reported as “remained stable” and the “touch-evoked response (TER), swimming distance” value (Zebrafish embryos) is reported as “significant neurodevelopmental adverse effect”.
